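All cell lines were grown in 96-well plates and treated with compound for 48 hours. GI50 = concentration required for 50% inhibition of growth.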 Activity calls are given as the source filed them. No stated cut-off is given here; in the data, active = GI50 up to about 1.1 µM and inactive = higher.
Assays:
Test in all cases: NCI tumour cell line growth inhibition, 48 h
MDA-MB-231 = system: MDA-MB-231
RXF 393 = system: RXF 393
SK-OV-3 = system: SK-OV-3
UACC-257 = system: UACC-257
SNB-19 = system: SNB-19
SN12C = system: SN12C
CCRF-CEM = system: CCRF-CEM
T47D = system: T47D
SW-620 = system: SW-620
MCF7 = system: MCF7
NCI-H23 = system: NCI-H23
IGROV-1 = system: IGROV-1
SF-539 = system: SF-539
UACC-62 = system: UACC-62
NCI-H522 = system: NCI-H522
UO-31 = system: UO-31
KM12 = system: KM12
M14 = system: M14
RPMI-8226 = system: RPMI-8226
Hs-578T = system: Hs-578T

SMILES	GI50 (MDA-MB-231)	GI50 (RXF 393)	GI50 (SK-OV-3)	GI50 (UACC-257)	GI50 (SNB-19)	GI50 (SN12C)	GI50 (CCRF-CEM)	GI50 (T47D)	GI50 (SW-620)	GI50 (MCF7)	GI50 (NCI-H23)	GI50 (IGROV-1)	GI50 (SF-539)	GI50 (UACC-62)	GI50 (NCI-H522)	GI50 (UO-31)	GI50 (KM12)	GI50 (M14)	GI50 (RPMI-8226)	GI50 (Hs-578T)
CCCCCCCCCCCCCCCC(=O)OCC(O)C1OC(=O)C(O)=C1O (stereo unspecified)	28.8 µM (inactive)	36.7 µM (inactive)	35.6 µM (inactive)	> 100 µM (inactive)	30.1 µM (inactive)	29.9 µM (inactive)	23.7 µM (inactive)	97.9 µM (inactive)	37.9 µM (inactive)	< 0.01 µM (active)	3.21 µM (inactive)	37.6 µM (inactive)	27.4 µM (inactive)	27.5 µM (inactive)	34.4 µM (inactive)	28.9 µM (inactive)	23.4 µM (inactive)	18.8 µM (inactive)	–	–
Cc1ccc(NC(=O)CCc2nnc(N)o2)cc1	–	> 100 µM (inactive)	> 100 µM (inactive)	> 100 µM (inactive)	> 100 µM (inactive)	> 100 µM (inactive)	> 100 µM (inactive)	–	> 100 µM (inactive)	–	> 100 µM (inactive)	> 100 µM (inactive)	> 100 µM (inactive)	> 100 µM (inactive)	> 100 µM (inactive)	> 100 µM (inactive)	> 100 µM (inactive)	> 100 µM (inactive)	> 100 µM (inactive)	–
COC1CC(COCc2ccccc2)CC(OC)O1 (stereo unspecified)	–	> 100 µM (inactive)	> 100 µM (inactive)	> 100 µM (inactive)	–	> 100 µM (inactive)	0.0198 µM (active)	> 100 µM (inactive)	> 100 µM (inactive)	> 100 µM (inactive)	> 100 µM (inactive)	–	> 100 µM (inactive)	> 100 µM (inactive)	> 100 µM (inactive)	> 100 µM (inactive)	> 100 µM (inactive)	> 100 µM (inactive)	> 100 µM (inactive)	> 100 µM (inactive)
Nc1ccc(C2=Nc3ccccc3SC(c3ccccc3O)C2)cc1 (stereo unspecified)	–	24.9 µM (inactive)	> 100 µM (inactive)	51.9 µM (inactive)	43.1 µM (inactive)	45.5 µM (inactive)	12.4 µM (inactive)	–	33.7 µM (inactive)	–	30.5 µM (inactive)	46.6 µM (inactive)	38.2 µM (inactive)	38.8 µM (inactive)	21.3 µM (inactive)	29.8 µM (inactive)	25.5 µM (inactive)	54.6 µM (inactive)	17.5 µM (inactive)	–
CCOC(=O)C1=C(O)C(=O)c2cc(OC)ccc2C1=O	–	> 100 µM (inactive)	> 100 µM (inactive)	35.1 µM (inactive)	38.9 µM (inactive)	> 100 µM (inactive)	> 100 µM (inactive)	–	> 100 µM (inactive)	–	31.8 µM (inactive)	> 100 µM (inactive)	65.9 µM (inactive)	> 100 µM (inactive)	55.7 µM (inactive)	63 µM (inactive)	> 100 µM (inactive)	> 100 µM (inactive)	> 100 µM (inactive)	–
COc1ccc(/C(Cl)=C(\C=O)c2ccc(Br)cc2)cc1OC	–	20.7 µM (inactive)	> 100 µM (inactive)	> 100 µM (inactive)	26.3 µM (inactive)	> 100 µM (inactive)	–	–	> 100 µM (inactive)	–	64.7 µM (inactive)	> 100 µM (inactive)	26.1 µM (inactive)	33.7 µM (inactive)	51.8 µM (inactive)	> 100 µM (inactive)	> 100 µM (inactive)	> 100 µM (inactive)	3.69 µM (inactive)	–
O=C(O)C12CCC(CC1=O)C2 (stereo unspecified)	–	–	> 100 µM (inactive)	> 100 µM (inactive)	> 100 µM (inactive)	> 100 µM (inactive)	> 100 µM (inactive)	> 100 µM (inactive)	> 100 µM (inactive)	> 100 µM (inactive)	> 100 µM (inactive)	> 100 µM (inactive)	–	> 100 µM (inactive)	> 100 µM (inactive)	> 100 µM (inactive)	> 100 µM (inactive)	> 100 µM (inactive)	> 100 µM (inactive)	> 100 µM (inactive)
C[N+]1(C)C/C(=C\c2ccc(O)cc2)C(=O)/C(=C/c2ccc(O)cc2)C1	–	> 100 µM (inactive)	> 100 µM (inactive)	> 100 µM (inactive)	> 100 µM (inactive)	18.5 µM (inactive)	23.7 µM (inactive)	–	> 100 µM (inactive)	–	–	> 100 µM (inactive)	65 µM (inactive)	64.9 µM (inactive)	> 100 µM (inactive)	> 100 µM (inactive)	45.1 µM (inactive)	> 100 µM (inactive)	44.7 µM (inactive)	–
CC1CC(N2CCOCC2)=Nc2ccccc2N1C (stereo unspecified)	> 100 µM (inactive)	> 100 µM (inactive)	> 100 µM (inactive)	> 100 µM (inactive)	> 100 µM (inactive)	> 100 µM (inactive)	> 100 µM (inactive)	–	> 100 µM (inactive)	–	80 µM (inactive)	> 100 µM (inactive)	> 100 µM (inactive)	> 100 µM (inactive)	98.9 µM (inactive)	> 100 µM (inactive)	> 100 µM (inactive)	> 100 µM (inactive)	> 100 µM (inactive)	> 100 µM (inactive)
CC(=O)OI1NC(=O)c2ccccc21	> 100 µM (inactive)	–	> 100 µM (inactive)	–	> 100 µM (inactive)	> 100 µM (inactive)	76.7 µM (inactive)	–	> 100 µM (inactive)	93.5 µM (inactive)	> 100 µM (inactive)	> 100 µM (inactive)	–	> 100 µM (inactive)	80.2 µM (inactive)	> 100 µM (inactive)	> 100 µM (inactive)	> 100 µM (inactive)	> 100 µM (inactive)	> 100 µM (inactive)
N#CC(C#N)=c1c2ccccc2c(=C(C#N)C#N)c2ccccc12	16.4 µM (inactive)	–	25.1 µM (inactive)	23.1 µM (inactive)	14.6 µM (inactive)	16.6 µM (inactive)	7.46 µM (inactive)	–	24.8 µM (inactive)	5.61 µM (inactive)	19.6 µM (inactive)	12.8 µM (inactive)	–	13.2 µM (inactive)	–	–	18.1 µM (inactive)	17.4 µM (inactive)	23.6 µM (inactive)	20.8 µM (inactive)
O=C(CCCN1CCC(Nc2ccccc2)(c2nnnn2C2CCCCC2)CC1)c1ccc(F)cc1	8.65 µM (inactive)	9.64 µM (inactive)	13.3 µM (inactive)	2.52 µM (inactive)	9.64 µM (inactive)	10.6 µM (inactive)	16.4 µM (inactive)	–	6.76 µM (inactive)	2.28 µM (inactive)	13.7 µM (inactive)	11.1 µM (inactive)	2.25 µM (inactive)	11.7 µM (inactive)	6.55 µM (inactive)	3.78 µM (inactive)	8.47 µM (inactive)	1.99 µM (inactive)	3.48 µM (inactive)	10.3 µM (inactive)
Nc1ccc(C(=O)c2cn(CCN3CCOCC3)c3ccccc23)c2ccccc12	–	–	> 100 µM (inactive)	45.6 µM (inactive)	75 µM (inactive)	–	3.94 µM (inactive)	24.4 µM (inactive)	30.8 µM (inactive)	34 µM (inactive)	23.8 µM (inactive)	16.1 µM (inactive)	70.8 µM (inactive)	34 µM (inactive)	21 µM (inactive)	44.4 µM (inactive)	31.1 µM (inactive)	44.6 µM (inactive)	26.5 µM (inactive)	28.2 µM (inactive)
OCCCSc1ccccc1SCCCO	> 100 µM (inactive)	–	> 100 µM (inactive)	> 100 µM (inactive)	> 100 µM (inactive)	> 100 µM (inactive)	> 100 µM (inactive)	> 100 µM (inactive)	> 100 µM (inactive)	> 100 µM (inactive)	> 100 µM (inactive)	> 100 µM (inactive)	> 100 µM (inactive)	> 100 µM (inactive)	> 100 µM (inactive)	> 100 µM (inactive)	> 100 µM (inactive)	> 100 µM (inactive)	–	–
C[C@H]1[C@H](C)CC[C@]2(C(=O)O)CCC3(COC(=O)/C=C/c4ccc(O)cc4)C(=CCC4[C@@]5(C)CC[C@H](O)C(C)(C)C5CC[C@]43C)[C@H]12 (stereo partly specified)	–	10.9 µM (inactive)	1.63 µM (inactive)	14.7 µM (inactive)	5.11 µM (inactive)	5.68 µM (inactive)	3.84 µM (inactive)	–	3.36 µM (inactive)	–	–	3.46 µM (inactive)	4.17 µM (inactive)	9.4 µM (inactive)	3.78 µM (inactive)	4.82 µM (inactive)	3.47 µM (inactive)	11.2 µM (inactive)	5.05 µM (inactive)	–
CC(=O)OC1C[C@H]2C(OC(=O)c3ccccc3)C3C4(OC(C)=O)COC4C[C@H](OC(C)=O)[C@@]3(C)C(OC(C)=O)[C@H](OC(C)=O)C(=C1C)C2(C)C (stereo partly specified)	–	16.2 µM (inactive)	34.1 µM (inactive)	58.6 µM (inactive)	24.2 µM (inactive)	51.2 µM (inactive)	36.7 µM (inactive)	–	57.9 µM (inactive)	–	52.8 µM (inactive)	41.8 µM (inactive)	50 µM (inactive)	77.1 µM (inactive)	20.4 µM (inactive)	24.9 µM (inactive)	59.4 µM (inactive)	23.2 µM (inactive)	20.4 µM (inactive)	–
O=C1c2ccsc2C(=O)c2sc(CO)cc21	0.159 µM (active)	1.09 µM (active)	1.11 µM (active)	0.0456 µM (active)	0.0929 µM (active)	0.0386 µM (active)	0.207 µM (active)	–	0.0564 µM (active)	–	0.0322 µM (active)	0.627 µM (active)	0.0469 µM (active)	0.0553 µM (active)	0.106 µM (active)	0.134 µM (active)	1.79 µM (inactive)	< 0.0123 µM (active)	0.22 µM (active)	0.0611 µM (active)

Source: ChEMBL document CHEMBL1201862, “PubChem BioAssay data set” (2004)
